Where a name gives a salt, the structure may show the parent alone.
Key:
[1] = target: T1, human norepinephrine transporter (Homo sapiens, UniProt P23975); assay: hNET receptor binding ([125I]-RTI-55, membranes of transfected HEK-293 cells); conditions: 50 pM [125I]-RTI-55, 90 min room temperature; IC50 converted by Cheng-Prusoff
T1 construct: host or cells: HEK-293
Procedure, shortened: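 Competition binding on membranes from HEK-293 cells transfected with human NET, using 50 pM [125I]-RTI-55 in Krebs-HEPES pH 7.4, drug 10^−5 to 10^−12 M in duplicate, 90 min at room temperature, filtration. Nonspecific binding defined with 10 μM desipramine; IC50 converted to Ki by Cheng-Prusoff.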

[2] = target: T2, human serotonin transporter (Homo sapiens, UniProt P31645); assay: hSERT receptor binding ([125I]-RTI-55, membranes of transfected HEK-293 cells); conditions: 50 pM [125I]-RTI-55, 90 min room temperature; IC50 converted by Cheng-Prusoff
T2 construct: host or cells: HEK-293
T2 sequence (P31645 whole entry): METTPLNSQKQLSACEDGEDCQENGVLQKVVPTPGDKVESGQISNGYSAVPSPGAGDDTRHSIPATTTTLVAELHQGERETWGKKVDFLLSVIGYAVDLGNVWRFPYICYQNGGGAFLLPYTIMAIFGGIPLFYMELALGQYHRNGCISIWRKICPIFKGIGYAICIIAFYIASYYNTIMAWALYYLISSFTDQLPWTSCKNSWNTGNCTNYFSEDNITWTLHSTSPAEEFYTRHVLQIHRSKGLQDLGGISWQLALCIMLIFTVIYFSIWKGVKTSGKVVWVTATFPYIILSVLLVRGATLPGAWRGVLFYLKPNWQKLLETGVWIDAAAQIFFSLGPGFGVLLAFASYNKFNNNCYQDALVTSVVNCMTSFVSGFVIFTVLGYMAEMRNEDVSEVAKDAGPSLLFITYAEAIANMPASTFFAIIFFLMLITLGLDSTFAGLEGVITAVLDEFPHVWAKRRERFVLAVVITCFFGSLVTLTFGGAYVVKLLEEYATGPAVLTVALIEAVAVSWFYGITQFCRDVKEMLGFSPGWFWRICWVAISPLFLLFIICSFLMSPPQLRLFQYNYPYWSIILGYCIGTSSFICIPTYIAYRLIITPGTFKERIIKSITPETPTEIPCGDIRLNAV
Experimental: Cell pastes of HEK-293 cells transfected with the human serotonin transporter were supplied by the Pfizer Ann Arbor Protein Expression and Production Group. Pellets were resuspended in 400 to 700 mL of Krebs-HEPES assay buffer (25 mM HEPES, 122 mM NaCl, 3 mM KCl, 1.2 mM MgSO4, 1.3 mM CaCl2, and 11 mM glucose, pH 7.4) with a Polytron homogenizer at Setting 7 for 30 seconds. Aliquots of membranes (˜2.5 mg/mL protein) were stored in liquid nitrogen until used.
Assays were set up in FlashPlates pre-coated with 0.1% PEI in a total volume of 250 μL containing: drug (10^−5M to 10^−12M), cell membranes, and 50 pM [^125I]-RTI-55 (Perkin Elmer, NEX-272; specific activity 2200 Ci/mmol). The reaction was incubated and gently agitated for 90 minutes at room temperature, and terminated by removal of assay volume. Plates were covered, and bound [^125I]-RTI-55 was determined using a Wallac Trilux Beta Plate Counter. Test compounds were run in duplicate, and specific binding was defined as the difference between binding in the presence and absence of 10 μM citalopram.
Excel and GraphPad Prism software were used for data calculation and analysis. IC50 values were converted to Ki values using the Cheng-Prusoff equation. The Ki values for the hSERT are reported below in Table 1.

T1 sequence (P23975 whole entry): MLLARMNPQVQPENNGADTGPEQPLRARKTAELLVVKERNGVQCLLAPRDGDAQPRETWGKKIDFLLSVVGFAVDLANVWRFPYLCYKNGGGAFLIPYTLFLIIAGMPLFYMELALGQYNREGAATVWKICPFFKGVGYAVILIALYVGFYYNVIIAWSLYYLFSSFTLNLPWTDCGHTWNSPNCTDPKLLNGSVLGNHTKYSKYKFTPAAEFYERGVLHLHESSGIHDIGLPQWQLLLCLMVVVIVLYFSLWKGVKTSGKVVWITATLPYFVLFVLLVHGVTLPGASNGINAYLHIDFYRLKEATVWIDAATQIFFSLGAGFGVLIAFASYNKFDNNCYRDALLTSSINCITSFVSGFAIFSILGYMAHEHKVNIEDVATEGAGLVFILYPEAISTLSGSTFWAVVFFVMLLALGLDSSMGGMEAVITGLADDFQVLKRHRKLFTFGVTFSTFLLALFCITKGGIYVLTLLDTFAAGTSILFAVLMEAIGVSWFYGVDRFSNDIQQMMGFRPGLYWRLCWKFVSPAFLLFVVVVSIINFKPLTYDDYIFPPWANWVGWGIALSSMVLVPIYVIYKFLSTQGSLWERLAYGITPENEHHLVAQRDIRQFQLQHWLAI

With `Fc1cccc(F)c1-c1nc(N2CCNCC2)nc2ccccc12` (as salt: hydrochloride) [Example 29, 4-(2,6-Difluoro-phenyl)-2-piperazin-4-yl-quinazoline hydrochloride] the melting point was 295 to 297 °C.
`Fc1cccc(-c2nc(N3CCCNCC3)nc3ccccc23)c1F` [Example 57, 2-[1,4]Diazepan-1-yl-4-(2,3-difluoro-phenyl)-quinazoline] gave a melting point of 203 to 206 °C and a Ki [1] of 0.004 µM.
In the case of `Fc1ccc2c(-c3ccccc3F)nc(N3CCNCC3)nc2c1` [Example 59, 7-Fluoro-4-(2-fluoro-phenyl)-2-piperazin-1-yl-quinazoline], the melting point is reported as 147 to 148 °C and the Ki [1] is reported as 0.0027 µM.
For `COC(=O)C1(c2nc(-c3ccccc3)c3ccccc3n2)CCNCC1.Cl` [Example 50, 4-(4-Phenyl-quinazolin-2-yl)piperidine-4-carboxylic acid methyl ester hydrochloride], the melting point was 227 to 228 °C and the Ki [1] was 0.0098 µM.
With `Cc1ccccc1-c1nc(N2CCN(C)CC2)nc2ccccc12` [Example 4, 2-(4-Methyl-piperazin-1-yl)-4-o-tolyl-quinazoline] the melting point was 91 to 94 °C and the Ki [1] was 0.0341 µM.
`CN1CCN(c2nc(-c3cccs3)c3ccccc3n2)CC1.O=C(O)C(=O)O` [Example 27, 2-(4-Methyl-piperazin-1-yl)-4-thiophen-2-yl-quinazoline oxalate] showed a melting point of 216 to 217 °C and a Ki [1] of 0.0674 µM.
Work on `C[C@@H]1CNCCN1c1nc(-c2ccccc2)c2ccccc2n1.Cl` [Example 30, (R)-(−)-2-(2-Methyl-piperazin-1-yl)-4-phenyl-quinazoline hydrochloride] yielded a melting point of 150 to 161 °C and a Ki [1] of 0.0055 µM.
Work on `CC(C)c1nc(N2CCCNCC2)nc2ccccc12.Cl` [Example 8, 2-[1,4]Diazepan-1-yl-4-isopropyl-quinazoline hydrochloride] yielded a melting point of 193 to 194 °C and a Ki [1] of 0.0048 µM.
Work on `c1ccc(-c2nc(N3C4CCC3CNC4)nc3ccccc23)cc1` [Example 56, 2-(3,8-Diaza-bicyclo[3.2.1]oct-8-yl)-4-phenyl-quinazoline] yielded a melting point of 278 to 280 °C and a Ki [1] of 0.005 µM.
In the case of `Cl.c1ccc(-c2nc(N3CC4CCCC(C3)N4)nc3ccccc23)cc1` [Example 32, 2-(3,9-Diaza-bicyclo[3.3.1]non-3-yl)-4-phenyl-quinazoline hydrochloride], the melting point is reported as > 300 °C and the Ki [1] is reported as 0.0385 µM.
Compound `Cl.NCCC1CCCN(c2nc(-c3ccccc3)c3ccccc3n2)C1` (centres unmarked) [Example 11, 2-[1-(4-Phenyl-quinazolin-2-yl)-piperidin-3-yl]-ethylamine hydrochloride] has a melting point of 86 to 88 °C and a Ki [1] of 0.0805 µM.
`Cl.N[C@H]1CCN(c2nc(-c3ccccc3)c3ccccc3n2)C1` [Example 14, (S)-(+)-1-(4-Phenyl-quinazolin-2-yl)-pyrrolidin-3-ylamine hydrochloride] showed a melting point of 274 to 275 °C and a Ki [1] of 0.0037 µM.
`Cl.Fc1ccccc1-c1nc(N2CCCNCC2)nc2ccccc12` [Example 21, 2-[1,4]Diazepan-1-yl-4-(2-fluoro-phenyl)-quinazoline hydrochloride] showed a melting point of 190 to 192 °C and a Ki [1] of 0.0037 µM.
With `C[C@H]1CNCCN1c1nc(-c2ccccc2)c2ccccc2n1.Cl` [Example 15, (S)-(+)-2-(2-Methyl-piperazin-1-yl)-4-phenyl-quinazoline hydrochloride] the melting point was 154 to 157 °C and the Ki [1] was 0.0046 µM.
Work on `CN1CCN(c2nc(-c3ccccc3)c3ccccc3n2)CC1` [Example 1, 2-(4-Methyl-piperazin-1-yl)-4-phenyl-quinazoline] yielded a melting point of 101 to 122 °C and a Ki [1] of 0.0297 µM.
Compound `Cl.c1ccc(-c2nc(C3CCCNC3)nc3ccccc23)cc1` (centres unmarked) (hydrate or solvate) has a melting point of 231 to 232 °C.
With `Cl.N[C@H]1CCCN(c2nc(-c3ccccc3F)c3ccccc3n2)C1` [Example 40, (S)-(+)-1-[4-(2-Fluoro-phenyl)-quinazolin-2-yl]-piperidin-3-ylamine hydrochloride] the melting point was 288 to 289 °C and the Ki [1] was 0.018 µM.
Compound `CN[C@H]1CCN(c2nc(-c3ccccc3F)c3ccccc3n2)C1` (as salt: hydrochloride) [Example 35, (S)-(+)-1-[4-(2-Fluoro-phenyl)-quinazolin-2-yl]-pyrrolidin-3-yl}-methyl-amine hydrochloride] has a melting point of 257 to 258 °C.
With `Fc1ccc(-c2nc(N3CCNCC3)nc3ccccc23)c(Cl)c1` (as salt: salt) [Example 61, 4-(2-Chloro-4-fluoro-phenyl)-2-piperazin-1-yl-quinazoline] the melting point was 248 to 251 °C.
Work on `c1ccc(-c2nc(N3CC4CNCC4C3)nc3ccccc23)cc1` (centres unmarked) (as salt: salt) [Example 81, 2-(Hexahydro-pyrrolo[3,4-c]pyrrol-2-yl)-4-phenyl-quinazoline] yielded a melting point of 267 to 270 °C.
In the case of `Cc1ccc(F)cc1-c1nc(N2CCNCC2)nc2cc(F)ccc12` [Example 137, 7-Fluoro-4-(5-fluoro-2-methyl-phenyl)-2-piperazin-1-yl-quinazoline], the Ki [2] is reported as 0.19 µM and the Ki [1] is reported as 0.0166 µM.
Work on `C[C@@H]1CNCCN1c1nc(-c2cccc(F)c2F)c2ccccc2n1` [Example 87, R-4-(2,3-Difluoro-phenyl)-2-(2-methyl-piperazin-1-yl)-quinazoline] yielded a Ki [2] of 0.0991 µM and a Ki [1] of 0.02 µM.
Work on `C[C@@H]1CNCCN1c1nc(-c2ccccc2)c2ccc(F)cc2n1` [Example 105, R-7-Fluoro-2-(2-methyl-piperazin-1-yl)-4-phenyl-quinazoline] yielded a Ki [2] of 0.065 µM and a Ki [1] of 0.0166 µM.
With `Fc1ccc(-c2nc(N3CCNCC3)c3ccccc3n2)c(F)c1` [Example 161, 2-(2,4-Difluoro-phenyl)-4-piperazin-1-yl-quinazoline] the Ki [2] was 0.382 µM and the Ki [1] was 3.48 µM.
Work on `Fc1cccc(F)c1-c1nc(N[C@H]2CCNC2)nc2ccccc12` [Example 101, S-[4-(2,6-Difluoro-phenyl)-quinazolin-2-yl]-pyrrolidin-3-yl-amine] yielded a Ki [2] of 4.87 µM and a Ki [1] of 0.0075 µM.
For `C[C@@H]1CNCCN1c1nc(-c2cccc(F)c2F)c2ccc(F)cc2n1` [Example 130, R-4-(2,3-Difluoro-phenyl)-7-fluoro-2-(2-methyl-piperazin-1-yl)-quinazoline], the Ki [2] was 0.0443 µM and the Ki [1] was 0.0247 µM.
`C[C@H]1CNCCN1c1nc(-c2c(F)cccc2Cl)c2ccccc2n1` [Example 85, S-4-(2-Chloro-6-fluoro-phenyl)-2-(2-methyl-piperazin-1-yl)-quinazoline] showed a Ki [2] of 0.265 µM and a Ki [1] of 0.0263 µM.
For `Fc1ccc2c(-c3c(F)cccc3F)nc(N3CCNCC3)nc2c1` [Example 98, 4-(2,6-Difluoro-phenyl)-7-fluoro-2-piperazin-1-yl-quinazoline], the Ki [2] was 0.032 µM and the Ki [1] was 0.02 µM.
Work on `COc1ccccc1-c1nc(N2CCNCC2)nc2cc(F)ccc12` [Example 136, 4-(2-Methoxy-phenyl)-7-fluoro-2-piperazin-1-yl-quinazoline] yielded a Ki [2] of 0.0765 µM and a Ki [1] of 0.0431 µM.
For `N[C@@H]1CCN(c2nc(-c3c(F)cccc3F)c3ccccc3n2)C1` [Example 95, R-1-[4-(2,6-Difluoro-phenyl)-quinazolin-2-yl]-pyrrolidin-3-ylamine], the Ki [2] was 0.322 µM and the Ki [1] was 0.0769 µM.
Compound `C[C@H]1CNCCN1c1nc(-c2ccccc2)c2ccc(F)cc2n1` [Example 106, S-′7-Fluoro-2-(2-methyl-piperazin-1-yl)-4-phenyl-quinazoline] has a Ki [2] of 0.0497 µM and a Ki [1] of 0.0183 µM.
With `CNC1CCN(c2nc(-c3c(F)cccc3F)c3ccccc3n2)C1` (centres unmarked) [Example 149, {1-[4-(2,6-Difluoro-phenyl)-quinazolin-2-yl)-pyrrolidin-3-yl}-methyl-amine] the Ki [2] was 1.62 µM and the Ki [1] was 0.135 µM.
With `Fc1ccc2c(-c3c(F)cccc3F)nc(C3CCNCC3)nc2c1` [Example 162, 4-(2,6-Difluoro-phenyl)-7-fluoro-2-piperidin-4-yl-quinazoline] the Ki [2] was 0.0528 µM and the Ki [1] was 0.0114 µM.
In the case of `Fc1ccc2c(-c3ccc(Cl)cc3Cl)nc(N3CCNCC3)nc2c1` [Example 120, 4-(2,4-Dichloro-phenyl)-7-fluoro-2-piperazin-1-yl-quinazoline], the Ki [2] is reported as 0.0341 µM and the Ki [1] is reported as 0.095 µM.
Compound `CNC1CCN(c2nc(-c3ccc(F)cc3F)c3ccccc3n2)C1` (centres unmarked) [Example 150, {1-[4-(2,4-Difluoro-phenyl)-quinazolin-2-yl]-pyrrolidin-3-yl}-methyl-amine] has a Ki [2] of 2.7 µM and a Ki [1] of 0.0415 µM.
Work on `C[C@@H]1CN(c2nc(-c3ccccc3)c3ccccc3n2)CCN1` (as salt: salt) [Example 31, (R)-(+)-2-(3-Methyl-piperazin-1-yl)-4-phenyl-quinazoline] yielded a melting point of 241 to 242 °C.
In the case of `C[C@@H]1CNCCN1c1nc(-c2c(F)cccc2F)c2ccccc2n1` [Example 86, R-4-(2,6-Difluoro-phenyl)-2-(2-methyl-piperazin-1-yl)-quinazoline], the Ki [2] is reported as 0.0886 µM and the Ki [1] is reported as 0.0144 µM.

Reference: patent US20050096327A1, “Novel norepinephrine reuptake inhibitors for the treatment of central nervous system disorders” (priority 2003, published 2005)
